The target in one assay is T1, human SCD1 (Homo sapiens, UniProt O00767).
T1 construct: expressed in transfected cells; host or cells: yeast strain with OLE1 deleted, plasmid-borne human SCD1 (selected in SD-Ura)
T1 sequence (O00767 1-359): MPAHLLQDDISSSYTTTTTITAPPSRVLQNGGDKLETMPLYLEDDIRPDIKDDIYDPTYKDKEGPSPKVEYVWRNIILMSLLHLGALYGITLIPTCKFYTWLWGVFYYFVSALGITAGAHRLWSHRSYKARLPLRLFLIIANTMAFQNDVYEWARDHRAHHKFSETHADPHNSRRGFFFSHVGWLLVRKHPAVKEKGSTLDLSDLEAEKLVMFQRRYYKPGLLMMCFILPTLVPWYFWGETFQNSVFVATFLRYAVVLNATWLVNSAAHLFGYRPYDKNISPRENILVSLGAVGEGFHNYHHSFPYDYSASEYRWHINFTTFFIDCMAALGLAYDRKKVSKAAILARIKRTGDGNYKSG
The experiment in a line: Growth inhibition of yeast strain expressing human SCD1 as sole desaturase (OLE1 deleted), OD600 readout. The format is cell-based. To be noted: yeast strain expressing human SCD1 as sole desaturase; growth (OD600) after 40 h at 30° C.; read-out: SCD1 IC50.

The next assay deals with T2, human SCD5 (Homo sapiens, UniProt Q86SK9).
T2 construct: expressed in transfected cells; host or cells: yeast strain with OLE1 deleted, plasmid-borne human SCD5 (selected in SD-Ura)
T2 sequence (Q86SK9 1-330): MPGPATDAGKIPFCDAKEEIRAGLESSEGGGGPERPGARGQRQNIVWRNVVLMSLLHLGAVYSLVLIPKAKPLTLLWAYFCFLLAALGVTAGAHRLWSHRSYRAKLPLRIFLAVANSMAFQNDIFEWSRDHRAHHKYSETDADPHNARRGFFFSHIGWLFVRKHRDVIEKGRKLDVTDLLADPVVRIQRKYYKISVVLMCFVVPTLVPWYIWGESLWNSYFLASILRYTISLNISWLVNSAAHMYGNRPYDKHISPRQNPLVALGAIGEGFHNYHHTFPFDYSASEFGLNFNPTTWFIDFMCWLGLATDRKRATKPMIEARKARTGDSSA
The experiment in a line: Growth inhibition of yeast strain expressing human SCD5 as sole desaturase (OLE1 deleted), OD600 readout. The format is cell-based. The note with it: yeast strain expressing human SCD5 as sole desaturase; growth (OD600) after 40 h at 30° C.; read-out: SCD5 IC50.

For orientation: IC50 means the concentration at which inhibition is half-maximal.

The structures appear in SMILES notation.

Turning to `N#Cc1ccc(NC(=O)c2ccc(Cc3ccc(F)c(F)c3)cn2)cn1` [Compound 542], the IC50 is 18000 nM at human SCD1 and 10 nM at human SCD5.

In the case of `Cn1cc(C(=O)Nc2ccc(Cc3cc(F)c(F)c(Cl)c3)cn2)ccc1=O` [Compound 543], the IC50 turned out to be 37 nM at human SCD1 and 10 nM at human SCD5.

Turning to `O=C(Nc1ccc(Cc2cccc(F)c2)cn1)c1ncc(CO)cn1` [Compound 544], the IC50 on human SCD1 came out at 10 nM; on human SCD5, 960 nM.

As to `Cn1cc(C(=O)Nc2ccc(Cc3cccc(C(F)F)c3)cn2)ccc1=O` [Compound 545], the IC50 at human SCD1 worked out at 710 nM; on human SCD5, 100 nM.

As to `Cn1nccc(C(=O)Nc2ccc(Cc3cccc(F)c3)cn2)c1=O` [Compound 546], the IC50 on human SCD1 amounted to 320 nM; on human SCD5, 27 nM.

Take `Cn1nccc(C(=O)Nc2ccc(Cc3ccc(F)c(F)c3)cn2)c1=O` [Compound 547]: the IC50 was 240 nM on human SCD1 and 10 nM on human SCD5.

`Cn1ccc(C(=O)Nc2ccc(Cc3ccc(F)c(F)c3)cn2)nc1=O` [Compound 548]: the IC50 at human SCD1 is over 45000 nM; on human SCD5 it was 3000 nM.

As for `N#Cc1cnc(C(=O)Nc2ccc(Cc3ccc(F)c(F)c3)cn2)nc1` [Compound 549], the values for the IC50 on human SCD1 and at human SCD5 were over 45000 nM and 890 nM, respectively.

`Cn1cc(C(=O)Nc2ccc(Cc3ccc(F)c(C#N)c3)cn2)ccc1=O` [Compound 550]: the IC50 on human SCD1 stood at 2400 nM; at human SCD5, 370 nM.

With `Cn1nc(C(=O)Nc2ccc(Cc3cccc(F)c3F)cn2)ccc1=O` [Compound 551], the IC50 was over 45000 nM on human SCD1 and 1200 nM at human SCD5.

For `Cn1cc(C(=O)Nc2ccc(Cc3cccc(F)c3F)cn2)ccc1=O` [Compound 552], the results for the IC50 on human SCD1 and on human SCD5 were 1900 nM and 360 nM, respectively.

Turning to `O=C(O)c1cnc(C(=O)Nc2ccc(Cc3ccc(F)c(F)c3)cn2)cn1` [Compound 554], the IC50 at human SCD1 was determined as 3200 nM; at human SCD5, 8800 nM.

As to `O=C(Nc1ccc(Cc2cccc(F)c2)cn1)c1cc2ncncc2s1` [Compound 555], the IC50 at human SCD1 was determined as 740 nM; at human SCD5 it was 10 nM.

Take `O=C(Nc1ccc(Cc2cccc(Cl)c2)cn1)c1cc2ncncc2s1` [Compound 556]: the IC50 at human SCD1 stood at 2300 nM; at human SCD5, 10 nM.

For `O=C(Nc1ccc(Cc2cccc(Cl)c2)cn1)c1ccc(C2(O)CC2)nc1` [Compound 557], the 50% inhibitory concentration (IC50) at human SCD1 is over 45000 nM; on human SCD5 it was 1900 nM.

Turning to `Cn1nc(C(=O)Nc2ccc(Cc3cc(F)c(F)c(C#N)c3)cn2)ccc1=O` [Compound 558], the values for the IC50 at human SCD1 and on human SCD5 were 43000 nM and 64 nM, respectively.

Regarding `O=C(Nc1ccc(Cc2cc(F)cc(F)c2)cn1)c1ncc(CO)cn1` [Compound 559], the IC50 at human SCD1 and on human SCD5 was 10 nM in each case.

On to `Cn1nc(C(=O)Nc2ccc(Cc3cccc(F)c3)cn2)cc1CO` [Compound 560], for which the IC50 at human SCD1 came out at 250 nM; on human SCD5 it was 22 nM.

As to `Cn1nc(C(=O)Nc2ccc(Cc3cccc(C(F)F)c3)cn2)ccc1=O` [Compound 561], the IC50 on human SCD1 worked out at 6700 nM; at human SCD5, 200 nM.

With `Cn1nc(C(=O)Nc2ccc(Cc3cc(F)cc(C(F)F)c3)cn2)ccc1=O` [Compound 562], the IC50 at human SCD1 stood at 1000 nM; at human SCD5, 10 nM.

For `N#Cc1cc(C(=O)Nc2ccc(Cc3ccc(F)c(F)c3)cn2)ccn1` [Compound 563], the IC50 at human SCD1 was determined as 1100 nM; on human SCD5, 570 nM.

Consider `Cn1nc(C(=O)Nc2ccc(Cc3ccc(F)c(C#N)c3)cn2)ccc1=O` [Compound 564], for which the IC50 at human SCD1 is 1400 nM; at human SCD5, 62 nM.

`Cn1cc(C(=O)Nc2ccc(Cc3cc(F)ccc3F)cn2)ccc1=O` [Compound 565]: the IC50 worked out at 2700 nM at human SCD1 and 20 nM at human SCD5.

As for `Cn1cc(C(=O)Nc2ccc(Cc3c(F)cccc3F)cn2)ccc1=O` [Compound 566], the values for the IC50 at human SCD1 and on human SCD5 were over 45000 nM and 5600 nM, respectively.

On to `CNC(=O)c1ccnc(NC(=O)c2ccc(Cc3cccc(F)c3)cn2)c1` [Compound 567], for which the IC50 on human SCD1 and at human SCD5 was 10 nM in each case.

For the molecule `C=Cc1cnc(C(=O)Nc2ccc(Cc3ccc(F)c(F)c3)cn2)nc1` [Compound 568], the IC50 turned out to be 3900 nM on human SCD1 and 880 nM on human SCD5.

Regarding `Cn1cc(NC(=O)c2ccc(COc3ccccc3)cn2)ccc1=O` [Compound 569], the IC50 is over 45000 nM at human SCD1 and 1200 nM at human SCD5.

Consider `COC(=O)c1ccnc(C(=O)Nc2ccc(Cc3cccc(F)c3)cn2)c1` [Compound 570], for which the figures for the IC50 on human SCD1 and on human SCD5 were 10000 nM and 430 nM, respectively.

On to `Cn1nc(C(=O)Nc2ccc(Cc3ccc(F)c(F)c3Cl)cn2)ccc1=O` [Compound 571], for which the IC50 at human SCD1 was 520 nM; on human SCD5, 10 nM.

As to `Cn1cc(C(=O)Nc2ccc(Cc3ccc(F)c(F)c3Cl)cn2)ccc1=O` [Compound 572], the values for the IC50 at human SCD1 and on human SCD5 were 17 nM and 10 nM, respectively.

Take `Cn1nc(C(=O)Nc2ccc(Oc3cc(F)cc(F)c3)cn2)ccc1=O` [Compound 573]: the half-inhibitory concentration (IC50) on human SCD1 is over 45000 nM; at human SCD5 it was 2300 nM.

For the molecule `Cn1nc(C(=O)Nc2ccc(Cc3ccc(F)c(C(F)F)c3)cn2)ccc1=O` [Compound 575], the results for the IC50 on human SCD1 and on human SCD5 were 370 nM and 10 nM, respectively.

With `N#Cc1ccc(C(=O)Nc2ccc(Cc3ccc(F)c(F)c3)cn2)nn1` [Compound 576], the IC50 at human SCD1 was over 45000 nM; on human SCD5, 400 nM.

Take `Cn1nc(C(=O)Nc2ncc(Cc3ccc(F)c(F)c3)cc2F)ccc1=O` [Compound 577]: the figures for the half-inhibitory concentration (IC50) at human SCD1 and at human SCD5 were 23000 nM and 6400 nM, respectively.

As for `CNC(=O)c1ccnc(C(=O)Nc2ccc(Cc3cccc(F)c3)cn2)c1` [Compound 578], the values for the 50% inhibitory concentration (IC50) on human SCD1 and at human SCD5 were over 45000 nM and 370 nM, respectively.

On to `N#Cc1cncc(C(=O)Nc2ccc(Cc3cccc(F)c3)cn2)c1` [Compound 579], for which the results for the IC50 on human SCD1 and on human SCD5 were over 45000 nM and 740 nM, respectively.

Regarding `O=C(Nc1ccc(Cc2cc(F)cc(F)c2)cn1)c1cncc(CO)c1` [Compound 580], the IC50 on human SCD1 was 19 nM; on human SCD5 it was 10 nM.

Regarding `Cc1ncc(C(=O)Nc2ccc(Cc3cc(F)cc(F)c3)cn2)cn1` [Compound 581], the IC50 stood at 680 nM at human SCD1 and 62 nM at human SCD5.

Regarding `CCn1cc(C(=O)Nc2ccc(Cc3ccc(F)c(F)c3)cn2)ccc1=O` [Compound 582], the IC50 on human SCD1 is 4300 nM; at human SCD5 it was 280 nM.

For the molecule `Cn1nc(C(=O)Nc2ccc(COc3ccccc3)cn2)ccc1=O` [Compound 584], the IC50 is over 45000 nM on human SCD1 and 1200 nM at human SCD5.

Turning to `O=C(Nc1ccc(Cc2ccc(F)c(F)c2)cn1)c1ccc(Cl)nn1` [Compound 585], the IC50 at human SCD1 was over 45000 nM; at human SCD5 it was 380 nM.

Consider `Cn1nc(C(=O)Nc2ccc(Oc3cc(F)cc(Cl)c3)cn2)ccc1=O` [Compound 586], for which the IC50 at human SCD1 is over 45000 nM; on human SCD5, 1300 nM.

Take `Cn1cc(C(=O)Nc2ccc(Oc3ccc(F)c(F)c3)cn2)ccc1=O` [Compound 587]: the IC50 at human SCD1 was 17000 nM; at human SCD5, 1100 nM.

For the molecule `Cn1cc(C(=O)Nc2ccc(Oc3cc(F)cc(F)c3)cn2)ccc1=O` [Compound 588], the IC50 came out at 6200 nM at human SCD1 and 530 nM on human SCD5.

For `Cn1cc(C(=O)Nc2ccc(Oc3cc(F)cc(Cl)c3)cn2)ccc1=O` [Compound 589], the IC50 at human SCD1 was determined as 2300 nM; at human SCD5, 150 nM.

In the case of `Cn1ccc(C(=O)Nc2ccc(Cc3cc(F)cc(F)c3)cn2)nc1=O` [Compound 590], the results for the IC50 on human SCD1 and on human SCD5 were 30000 nM and 470 nM, respectively.

On to `N#Cc1cnc(C(=O)Nc2ccc(Cc3ccc(F)c(F)c3)cn2)cn1` [Compound 591], for which the figures for the IC50 on human SCD1 and at human SCD5 were 2200 nM and 18 nM, respectively.

As to `CNC(=O)c1ccc(C(=O)Nc2ccc(Cc3cccc(Cl)c3)cn2)cn1` [Compound 592], the IC50 on human SCD1 is over 45000 nM; on human SCD5 it was 276 nM.

Consider `CNC(=O)c1ccc(C(=O)Nc2ccc(Cc3ccc(F)c(F)c3)cn2)cn1` [Compound 593], for which the results for the IC50 at human SCD1 and on human SCD5 were over 45000 nM and 430 nM, respectively.

Take `CCn1cc(C(=O)Nc2ccc(Cc3cc(F)cc(C#N)c3)cn2)cn1` [Compound 594]: the IC50 at human SCD1 is 3100 nM; on human SCD5, 120 nM.

As to `Cc1ncc(C(=O)Nc2ccc(Cc3cc(F)cc(C#N)c3)cn2)cn1` [Compound 595], the values for the half-maximal inhibitory concentration (IC50) on human SCD1 and at human SCD5 were 35000 nM and 420 nM, respectively.

Consider `COc1cc(C(=O)Nc2ccc(Cc3cc(F)cc(F)c3)cn2)nn(C)c1=O` [Compound 596], for which the IC50 at human SCD1 amounted to 1080 nM; on human SCD5 it was 26 nM.

As to `COc1cc(Cc2ccc(NC(=O)c3ccc(=O)n(C)n3)nc2)ccc1F` [Compound 597], the results for the IC50 at human SCD1 and at human SCD5 were 2600 nM and 70 nM, respectively.

Values taken from patent US20230078764A1 (Yumanity Therapeutics, Inc., priority 2019, published 2023).
